Results reported in PMC5369524 (Chemical Science, 2016).

Assays:
HIV = details: ref [55]; cited from earlier work
[1] = target: full NCp7 zinc finger peptide (Human immunodeficiency virus type 1 group M subtype B, UniProt P12493); details: positive band centered at 210–220 nm
full NCp7 peptide = full NCp7 peptide (Human immunodeficiency virus type 1 group M subtype B, UniProt P12493)
[2] = target: C-terminal ZF2 of HIV1NCp7 (Human immunodeficiency virus type 1 group M subtype B, UniProt P12493); details: figures in parentheses of Table 1

Structure (SMILES)	Anti-HIV activity (HIV)	Effect on CD spectrum / tertiary structure of NCp7 [1]	K a, association with full NCp7 peptide (full NCp7 peptide; figures in bold parentheses of Table 1)	K a, association constant with full NCp7 peptide (full NCp7 peptide; fluorescence quenching)	K a, association with C-terminal ZF2 of HIV1NCp7 [2]
CCn1cnc2c(=O)[nH]c(N)nc21.N.[Cl][Pt+].c1ccc2ncccc2c1 [SP-4-2-[PtCl(NH3)(9-EtGua)(quinoline)]^+]	modest anti-HIV activity				
CCn1cnc2c(=O)[nH]c(N)nc21.NCCNCCN.[Pt+2] [[Pt(dien)(9-EtGua)]^2+]		no major disruption of the peptide	(20 ± 0.08) ×10^3 M^–1	2.0 × 10^4 M^–1	(13.10 ± 0.94) ×10^3 M^–1
